The target in the assay is Glucagon receptor (Homo sapiens, UniProt P47871). Put plainly: Binding Assay: The binding assay was performed by a filtration method in a 384 well format. Membranes at a final protein concentration of 6 μg/well were incubated with 125I-glucagon at 0.3 nM and in the presence of compound for 2 hours at room temperature in a total reaction volume of 40 μL per well. Assay buffer consisted of 50 mM HEPES, pH 7.4, 5 mM MgCl2, 1 mM CaCl2 and 0.2% BSA. 30 μL of the reaction was then transferred to PEI treated filter plates and followed by filter aspiration. Plates were then washed 5x and allowed to dry at room temperature overnight. The next day the bottom of the plate was covered with seal tape and scintillant was added. Total counts retained by the filters were quantified with a Top Count instrument.
Sequence of Glucagon receptor (P47871 whole entry): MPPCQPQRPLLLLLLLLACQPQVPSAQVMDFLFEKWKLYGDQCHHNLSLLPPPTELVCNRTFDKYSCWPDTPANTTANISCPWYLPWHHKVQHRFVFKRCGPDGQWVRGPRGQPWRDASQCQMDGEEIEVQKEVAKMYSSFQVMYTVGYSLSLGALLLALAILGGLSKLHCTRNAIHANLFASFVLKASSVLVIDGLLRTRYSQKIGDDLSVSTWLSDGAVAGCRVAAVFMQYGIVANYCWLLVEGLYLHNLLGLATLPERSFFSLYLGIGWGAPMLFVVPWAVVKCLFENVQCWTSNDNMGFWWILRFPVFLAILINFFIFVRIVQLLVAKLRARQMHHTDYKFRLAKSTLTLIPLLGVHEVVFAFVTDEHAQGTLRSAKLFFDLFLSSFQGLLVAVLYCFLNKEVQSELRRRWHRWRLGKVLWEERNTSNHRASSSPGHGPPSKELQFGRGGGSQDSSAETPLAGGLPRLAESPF

Broadly, the Ki is a measure of affinity in units of concentration, obtained from inhibition or displacement.

In the case of `O=C(O)CCNC(=O)c1ccc(-c2cc(C(F)(F)F)ccc2CNc2ccc(-c3ccc(Cl)cc3C(F)(F)F)cc2)cn1`, the Ki came out at 47 nM.

(Values after ChEMBL document CHEMBL3638560, “Picolinamido-propanoic acid derivatives useful as glucagon receptor antagonists” (2014).)
